{"source": "paper PMC11031590", "about": "“Narazaciclib, a novel multi-kinase inhibitor with potent activity against CSF1R, FLT3 and CDK6, shows strong anti-AML activity in defined preclinical models” (Scientific Reports, 2024)", "key": {"Ba/F3-FLT3-ITD": {"test_system": "Ba/F3-FLT3-ITD", "assay": "Ba/F3-FLT3-ITD proliferation assay", "assay_type": "cell-based, mouse", "experimental": "(§1) The recombinant Ba/F3 cell lines overexpressing human CSF1R, or human RBM6-CSF1R, or human ETV6-CSF1R were generated using a retrovirus vector (Kyinno Co., Ltd. Beijing). The recombinant Ba/F3 lines overexpressing human Kras G12C orEGFR-L718Q mutants, and different mutant variants of FLT3 were also similarly created as well. A standard proliferation assay via CTG readout was performed according to the vendor’s instructions (KYinno Biotechnology Co., Ltd. Beijing)."}, "FLT3": {"target": "FLT3 (Homo sapiens, UniProt P36888)", "sequence (P36888 27-993)": "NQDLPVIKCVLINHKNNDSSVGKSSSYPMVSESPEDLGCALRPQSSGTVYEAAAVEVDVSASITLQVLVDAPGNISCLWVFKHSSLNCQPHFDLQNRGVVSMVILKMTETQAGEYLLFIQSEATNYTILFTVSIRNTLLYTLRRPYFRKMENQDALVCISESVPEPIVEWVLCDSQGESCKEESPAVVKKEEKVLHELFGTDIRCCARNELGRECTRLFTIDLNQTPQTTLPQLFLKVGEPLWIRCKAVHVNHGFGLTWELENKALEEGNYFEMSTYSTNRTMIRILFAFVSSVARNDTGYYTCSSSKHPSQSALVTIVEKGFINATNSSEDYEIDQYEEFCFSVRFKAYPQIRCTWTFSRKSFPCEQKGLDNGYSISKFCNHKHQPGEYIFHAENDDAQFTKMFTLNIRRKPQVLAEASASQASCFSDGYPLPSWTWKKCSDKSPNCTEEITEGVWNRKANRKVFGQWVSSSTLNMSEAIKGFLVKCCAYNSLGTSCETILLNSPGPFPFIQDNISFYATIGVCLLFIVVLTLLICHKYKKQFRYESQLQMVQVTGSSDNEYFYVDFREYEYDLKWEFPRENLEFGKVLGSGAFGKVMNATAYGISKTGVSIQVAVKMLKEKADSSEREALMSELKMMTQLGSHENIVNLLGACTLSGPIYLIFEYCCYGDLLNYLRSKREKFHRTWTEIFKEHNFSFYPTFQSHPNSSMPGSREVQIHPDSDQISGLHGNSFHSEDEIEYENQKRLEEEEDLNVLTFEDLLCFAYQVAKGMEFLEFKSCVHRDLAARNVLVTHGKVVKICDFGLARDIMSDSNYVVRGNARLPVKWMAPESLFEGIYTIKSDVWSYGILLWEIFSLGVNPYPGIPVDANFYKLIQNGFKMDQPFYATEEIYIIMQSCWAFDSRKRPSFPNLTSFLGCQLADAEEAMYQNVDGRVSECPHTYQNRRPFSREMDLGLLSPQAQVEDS", "assay": "FLT3 kinase inhibition assay (ADP-Glo)", "assay_type": "biochemical", "conditions": "ATP 10 μM; read-out: IC50 FLT3 enzymatic activity", "experimental": "Different assays were used to measure the inhibitory potencies of narazaciclib on FLT3, CSF1R and CDK6. For FLT3 inhibition, the enzyme, substrate (final concentration at 15 μg/μL), ATP (final concentration at 10 μM) and inhibitors were diluted and mixed in kinase buffer (40 mM Tris, pH 7.5; 20 mM MgCl2; 0.1 mg/ml BSA; 50 μM DTT). The mixtures were incubated at 25 °C for 120 min. Then, ADP‐Glo™ Reagent (Promega) was added to the mix and incubated at 25 °C for 40 min followed by the addition of kinase detection reagent and another 30 min at 25 °C. Luminescence was recorded with an integration time of 0.5 s."}, "Ba/F3-FLT3-ITD (N701K)": {"test_system": "Ba/F3-FLT3-ITD (N701K)", "assay": "Ba/F3-FLT3-ITD (N701K) proliferation assay", "assay_type": "cell-based, mouse", "experimental": "as §1"}, "Ba/F3-FLT3-ITD (D835V)": {"test_system": "Ba/F3-FLT3-ITD (D835V)", "assay": "Ba/F3-FLT3-ITD (D835V) proliferation assay", "assay_type": "cell-based, mouse", "experimental": "as §1"}, "Ba/F3-FLT3-ITD (F691L)": {"test_system": "Ba/F3-FLT3-ITD (F691L)", "assay": "Ba/F3-FLT3-ITD (F691L) proliferation assay", "assay_type": "cell-based, mouse", "experimental": "as §1"}, "AM7577 AML-PDX": {"test_system": "AM7577 AML-PDX", "assay": "AM7577 systemic AML-PDX model", "assay_type": "in vivo, NOD/scid mice", "experimental": "(§2) For systemic AML-PDX models, the model establishment and narazaciclib pharmacology experiment were performed essentially as described previously. Briefly, 2 × 10^6 AM7407 cells, or 2 × 10^6 AM7577 cells, or 2 × 10^6 AM5512 cells, or 1.65 × 10^6 AM8096 cells were inoculated intravenously into 4- to 5-week-old female NOD/scid mice for AML development. Engraftment was confirmed by the presence of circulating human CD45+ cells (anti-human CD45 antibody, Cat. 304038, Biolegend) in peripheral blood. Mice with successful engraftment of AML-PDX were randomized into different treatment groups (N = 6) and received their designated treatments. Narazaciclib was administrated orally or intraperitoneally at 10 mg/kg, or 30 mg/kg, or 100 mg/kg every day throughout the study, while Cytarabine was administrated intraperitoneally at 3 mg/kg every day. Following the initiation of designated treatments, leukemic burden was monitored by flow cytometry with anti-human CD45 antibody on the peripheral blood every week as well as on the peripheral blood, bone marrow cells and splenocytes of mice at sacrifice. Mice were sacrifice once the followings are observed: body weight loss over 20%, reduced motility and activity, labored breathing, ruffled coat, hunched back and severe dehydration."}, "AML cell lines": {"test_system": "AML cell lines", "assay": "In vitro proliferation assay, panel of 33 AML cell lines (summary statements)", "assay_type": "cell-based", "conditions": "a subset of AML lines; read-out: IC50 growth inhibition", "experimental": "Narazaciclib was serially diluted with culture medium to 9 final assay concentrations from 0.01 to 100 μM. The assay was performed with both a negative control (vehicle) and a positive control (Cisplatin) in triplicate. The AML cell lines at log-growth phase were cultured in 96-well plates (black transparent flat bottom 96-well plate, Corning, Cat# 3603, FBS, ExCell Bio., Cat# FND500) in the presence of narazaciclib or Cisplatin at various concentrations for 72 h or 120 h (only for AML-193 cell line), followed by CTG readout according to the manufacturer’s instruction (CellTiter-Glo Luminescent Cell Viability Assay, Promega, Cat# G7573). Viability%=Lumdrug-Lummedium control/Lumcell control-Lummedium control×100%. Lumcell control-Lummedium controlas100%,LumMediumcontrolas0%. […]\nDose–response curves were fitted by a 4-parameter log-logistic model: Inhibition%=Bottom+Top-Bottom/1+10^logEC50-x∗HillSlope where Top and Bottom are the two asymptotes of the sigmoidal curve, EC50 is the relative IC50, concentration x is in log-10 scale and HillSlope is the slope at the EC50 point on the fitted curve. The fitted area under the curve (AUC) was calculated by: Inhibition%=Bottom+Top-Bottom/1+10^logEC50-x∗HillSlope where a represents the log10-transformed minimal concentration and b represents the log10-transformed maximal concentration. […]"}, "AM8096 AML-PDX": {"test_system": "AM8096 AML-PDX", "assay": "AM8096 systemic AML-PDX model", "assay_type": "in vivo, NOD/scid mice", "experimental": "as §2"}, "[1]": {"test_system": "Ba/F3-RBM6-CSF1R cell line", "assay": "Ba/F3-RBM6-CSF1R proliferation assay (CTG)", "assay_type": "cell-based, mouse", "conditions": "Mus musculus; not requiring CSF1", "experimental": "as §1"}, "Ba/F3-KRAS-G12C": {"test_system": "Ba/F3-KRAS-G12C", "assay": "Ba/F3-KRAS-G12C proliferation assay (CTG)", "assay_type": "cell-based", "conditions": "Mus musculus", "experimental": "as §1"}, "AM7407 AML-PDX": {"test_system": "AM7407 AML-PDX", "assay": "AM7407 systemic AML-PDX model", "assay_type": "in vivo, NOD/scid mice", "conditions": "AM7407, 100 mg/kg orally every day", "experimental": "as §2"}, "Ba/F3-FLT3": {"test_system": "Ba/F3-FLT3", "assay": "Ba/F3-FLT3 proliferation assay", "assay_type": "cell-based, mouse", "experimental": "as §1"}, "Ba/F3-FLT3-ITD (D835Y)": {"test_system": "Ba/F3-FLT3-ITD (D835Y)", "assay": "Ba/F3-FLT3-ITD (D835Y) proliferation assay", "assay_type": "cell-based, mouse", "experimental": "as §1"}, "ABL-1": {"target": "ABL-1 (Homo sapiens, UniProt P00519)", "sequence (P00519 whole entry)": "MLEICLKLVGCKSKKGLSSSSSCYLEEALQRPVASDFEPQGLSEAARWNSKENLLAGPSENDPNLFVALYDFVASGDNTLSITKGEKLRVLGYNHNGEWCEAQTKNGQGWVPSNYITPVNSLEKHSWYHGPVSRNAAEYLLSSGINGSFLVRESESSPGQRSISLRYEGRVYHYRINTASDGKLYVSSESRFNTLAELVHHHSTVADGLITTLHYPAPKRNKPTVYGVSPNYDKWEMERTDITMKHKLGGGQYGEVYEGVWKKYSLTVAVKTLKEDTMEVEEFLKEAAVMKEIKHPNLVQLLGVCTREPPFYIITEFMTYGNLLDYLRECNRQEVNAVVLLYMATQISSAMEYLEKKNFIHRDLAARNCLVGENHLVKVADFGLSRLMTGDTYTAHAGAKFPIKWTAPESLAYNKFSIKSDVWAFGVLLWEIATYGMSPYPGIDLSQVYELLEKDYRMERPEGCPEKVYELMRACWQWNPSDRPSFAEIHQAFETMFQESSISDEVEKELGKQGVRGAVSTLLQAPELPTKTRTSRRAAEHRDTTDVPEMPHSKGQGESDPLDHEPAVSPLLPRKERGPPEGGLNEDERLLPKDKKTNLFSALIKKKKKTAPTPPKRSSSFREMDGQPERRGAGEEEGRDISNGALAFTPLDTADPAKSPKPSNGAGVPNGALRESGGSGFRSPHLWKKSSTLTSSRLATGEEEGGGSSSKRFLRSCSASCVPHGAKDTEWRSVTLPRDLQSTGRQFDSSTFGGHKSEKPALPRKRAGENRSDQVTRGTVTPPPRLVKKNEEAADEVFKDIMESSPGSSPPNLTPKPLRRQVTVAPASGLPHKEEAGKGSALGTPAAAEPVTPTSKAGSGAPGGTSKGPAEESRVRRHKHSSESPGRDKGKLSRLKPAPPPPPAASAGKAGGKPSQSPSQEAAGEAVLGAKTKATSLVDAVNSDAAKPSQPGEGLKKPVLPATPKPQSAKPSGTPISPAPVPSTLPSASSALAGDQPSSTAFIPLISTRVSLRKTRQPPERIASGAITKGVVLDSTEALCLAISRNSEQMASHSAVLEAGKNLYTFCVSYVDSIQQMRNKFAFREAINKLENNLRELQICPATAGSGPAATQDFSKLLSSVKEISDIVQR", "assay": "Additional kinase inhibition panel", "assay_type": "biochemical", "excerpt": "(§3) Supplement 41598_2024_59650_MOESM2_ESM.docx, table 4: Supplemental Table S4. IC50 of Narazaciclib against additional kinases | column: Narazaciclib (µM); Narazaciclib metabolite (µM)"}, "RET": {"target": "RET (Homo sapiens, UniProt P07949)", "sequence (P07949 29-1114)": "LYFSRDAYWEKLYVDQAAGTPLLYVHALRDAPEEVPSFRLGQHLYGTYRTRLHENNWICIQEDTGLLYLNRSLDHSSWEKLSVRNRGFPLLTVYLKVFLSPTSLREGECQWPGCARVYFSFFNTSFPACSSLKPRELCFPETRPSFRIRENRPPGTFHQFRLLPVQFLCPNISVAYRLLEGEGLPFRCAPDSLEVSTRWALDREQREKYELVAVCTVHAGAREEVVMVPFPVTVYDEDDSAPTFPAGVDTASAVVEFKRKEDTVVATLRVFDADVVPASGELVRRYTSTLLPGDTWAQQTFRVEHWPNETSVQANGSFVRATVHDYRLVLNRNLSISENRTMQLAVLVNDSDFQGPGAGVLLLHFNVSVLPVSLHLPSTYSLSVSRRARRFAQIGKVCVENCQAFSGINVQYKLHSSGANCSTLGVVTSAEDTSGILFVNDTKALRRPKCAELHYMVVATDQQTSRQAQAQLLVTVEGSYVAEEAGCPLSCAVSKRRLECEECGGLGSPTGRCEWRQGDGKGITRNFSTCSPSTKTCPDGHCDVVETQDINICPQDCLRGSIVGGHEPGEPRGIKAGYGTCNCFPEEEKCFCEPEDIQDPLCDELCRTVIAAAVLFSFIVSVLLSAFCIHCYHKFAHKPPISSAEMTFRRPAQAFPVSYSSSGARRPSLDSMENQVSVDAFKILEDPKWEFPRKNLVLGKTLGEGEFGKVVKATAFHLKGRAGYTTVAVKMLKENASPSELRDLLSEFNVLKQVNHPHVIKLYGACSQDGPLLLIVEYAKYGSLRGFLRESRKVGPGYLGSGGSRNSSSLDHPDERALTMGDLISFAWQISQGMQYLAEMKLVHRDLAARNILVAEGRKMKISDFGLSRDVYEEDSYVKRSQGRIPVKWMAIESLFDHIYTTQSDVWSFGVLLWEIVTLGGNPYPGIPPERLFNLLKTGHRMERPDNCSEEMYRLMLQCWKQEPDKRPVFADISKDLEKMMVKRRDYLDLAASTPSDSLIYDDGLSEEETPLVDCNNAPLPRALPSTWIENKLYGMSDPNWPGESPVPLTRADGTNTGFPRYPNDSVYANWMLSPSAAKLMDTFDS", "assay": "Additional kinase inhibition panel", "assay_type": "biochemical", "excerpt": "as §3"}, "Ba/F3-FLT3-N701K": {"test_system": "Ba/F3-FLT3-N701K", "assay": "Ba/F3-FLT3-N701K proliferation assay", "assay_type": "cell-based, mouse", "experimental": "as §1"}}, "note": "Several values for one entry are separate records, joined by “and”; a condition that tells them apart may be missing. Identical values can stand only once.", "data": [{"smiles": "CN1CCN(c2ccc(Nc3ncc4cc(C#N)c(=O)n(C5CCCC5)c4n3)cc2)CC1", "note": "[Narazaciclib, narazaciclib]", "values": [{"measurement": "% of Ba/F3-FLT3 (IC50)", "setting": "Ba/F3-FLT3-ITD", "value": 31.66, "unit": "%"}, {"measurement": "IC50", "setting": "Ba/F3-FLT3-ITD; Mus musculus", "value": 95.3, "unit": "nM"}, {"measurement": "IC50", "setting": "FLT3", "value": "~19.8 nM and 19.8 nM"}, {"measurement": "% of Ba/F3-FLT3 (IC50)", "setting": "Ba/F3-FLT3-ITD (N701K)", "value": 38.91, "unit": "%"}, {"measurement": "IC50", "setting": "Ba/F3-FLT3-ITD (N701K); Mus musculus", "value": 117, "unit": "nM"}, {"measurement": "% of Ba/F3-FLT3 (IC50)", "setting": "Ba/F3-FLT3-ITD (D835V)", "value": 9.84, "unit": "%"}, {"measurement": "IC50", "setting": "Ba/F3-FLT3-ITD (D835V); Mus musculus", "value": 29.6, "unit": "nM"}, {"measurement": "% of Ba/F3-FLT3 (IC50)", "setting": "Ba/F3-FLT3-ITD (F691L)", "value": 53.85, "unit": "%"}, {"measurement": "IC50", "setting": "Ba/F3-FLT3-ITD (F691L); Mus musculus", "value": 162, "unit": "nM"}, {"measurement": "leukemic load in peripheral blood", "setting": "AM7577 AML-PDX; 100 mg/kg orally every day", "value": "completely diminished the leukemic load in peripheral blood"}, {"measurement": "leukemic load in peripheral blood, spleen and bone marrow", "setting": "AM7577 AML-PDX; AM7577", "value": "reduce the leukemic load in peripheral blood and spleen, but also the leukemic load in bone marrow"}, {"measurement": "leukemic burdens in spleen and bone marrow", "setting": "AM7577 AML-PDX; AM7577, 100 mg/kg", "value": "significantly reduced the leukemic burdens in both spleen and bone marrow"}, {"measurement": "leukemic burdens, dose dependence", "setting": "AM7577 AML-PDX; AM7577, different dose levels", "value": "reduced the leukemic burdens in a dose-dependent manner"}, {"measurement": "IC50", "setting": "AML cell lines", "value": "< 1500", "unit": "nM"}, {"measurement": "leukemic load in peripheral blood, spleen and bone marrow", "setting": "AM8096 AML-PDX; AM8096", "value": "reduce the leukemic load in peripheral blood and spleen, but also the leukemic load in bone marrow"}, {"measurement": "leukemic burdens, dose dependence", "setting": "AM8096 AML-PDX; AM8096, different dose levels", "value": "reduced the leukemic burdens in a dose-dependent manner"}, {"measurement": "response of model", "setting": "AM8096 AML-PDX; AM8096, narazaciclib 100 mg/kg intraperitoneally every day", "value": "responded completely"}, {"measurement": "IC50", "setting": "[1]", "value": 36.9, "unit": "nM"}, {"measurement": "IC50", "setting": "Ba/F3-KRAS-G12C", "value": 490, "unit": "nM"}, {"measurement": "response of model", "setting": "AM7407 AML-PDX", "value": "did not respond"}, {"measurement": "% of Ba/F3-FLT3 (IC50)", "setting": "Ba/F3-FLT3; Ba/F3-FLT3", "value": 100.00, "unit": "%"}, {"measurement": "IC50", "setting": "Ba/F3-FLT3; Mus musculus, Ba/F3-FLT3 (wild type)", "value": 301, "unit": "nM"}, {"measurement": "% of Ba/F3-FLT3 (IC50)", "setting": "Ba/F3-FLT3-ITD (D835Y)", "value": 20.19, "unit": "%"}, {"measurement": "IC50", "setting": "Ba/F3-FLT3-ITD (D835Y); Mus musculus", "value": 60.8, "unit": "nM"}, {"measurement": "IC50", "setting": "ABL-1", "value": 38, "unit": "nM"}, {"measurement": "IC50", "setting": "RET", "value": 16, "unit": "nM"}, {"measurement": "% of Ba/F3-FLT3 (IC50)", "setting": "Ba/F3-FLT3-N701K", "value": 131.40, "unit": "%"}, {"measurement": "IC50", "setting": "Ba/F3-FLT3-N701K; Mus musculus", "value": 396, "unit": "nM"}]}]}
